This passage reports Ki and IC50 results from patent US20230250077A1, “SULFONYLBENZAMIDE DERIVATIVE AND CONJUGATE THEREOF, PREPARATION METHOD THEREFOR AND USE THEREOF” (Jiangsu Hengrui Pharmaceuticals Co., Ltd., priority 2020, published 2023).

For experiment [1], the target named is T1, BCL-xL (Homo sapiens, UniProt Q07817).
T1 construct: purchased R&D 894-BX-050
The experiment is described as follows: Binding activity for BCL-xL (HTRF, biotin-labeled BIM). As to conditions: His-tagged BCL-xL. As for the experimental part: In vitro BCL-xL-binding activity was tested by the following method.
Reagents used in this experiment: His-tagged BCL-xL protein (R&D, Cat #894-BX-050); biotin-labeled BIM protein (R&D, Cat #3526/1); binding buffer (cisbio, Cat #62DLBDDF); assay buffer (cisbio, Cat #62DB1FDG); MAb anti-6His-Eu cryptate (cisbio, Cat #61HI2KLA); and affinity streptomycin linked XL665 (cisbio, Cat #611SAXLA).
The in vitro binding assay described below can determine the binding activity of test compounds for BCL-xL.
The test compounds were dissolved in dimethyl sulfoxide and diluted to gradient concentrations as required for the experiment, and the compounds at various concentrations formulated in dimethyl sulfoxide were subjected to a 100-fold dilution with a binding buffer. BCL-xL was diluted to the corresponding concentration with a binding buffer, and added to a white 384-well plate at 4 μL/well. Then the diluted test compound was added to the white 384-well plate at 2 μL/well. The plate was incubated at 25° C. for 1 h after the mixture was uniformly mixed. Biotin-labeled BIM protein was diluted to the corresponding concentration with a binding buffer, and added to a white 384-well plate at 4 μL/well. The plate was incubated at 25° C. for 2 h after the mixture was uniformly mixed. The MAb anti-6His-Eu cryptate and the affinity streptomycin linked XL665 were each diluted to the corresponding concentration with an assay buffer, and added to a white 384-well plate at 5 μL/well. The plate was incubated at 25° C. for 2-4 h after the mixture was uniformly mixed. The signal values were read with the HTRF program in a microplate reader (BMG Labtech, model: PHERAstar FS).
(Time-resolved FRET reads energy transfer from a long-lived donor to a nearby acceptor.)

Experiment [2] has as its target T2, BCL-2 (Homo sapiens, UniProt P10415).
T2 construct: purchased R&D systems 827-BC-050
The experiment is described as follows: Binding activity for BCL-2 (HTRF, biotin-labeled BIM). Particulars: His-tagged BCL-2, biotin-labeled BIM. As for the experimental part:
In vitro BCL-2-binding activity was tested by the following method.
Reagents used in this experiment: His-tagged BCL-2 protein (R&D systems, Cat #827-BC-050); biotin-labeled BIM protein (R&D, Cat #3526/1); binding buffer (cisbio, Cat #62DLBDDF); assay buffer (cisbio, Cat #62DB1FDG); MAb anti-6His-Eu cryptate (cisbio, Cat #61HI2KLA); and affinity streptomycin linked XL665 (cisbio, Cat #611SAXLA).
The in vitro binding assay described below can determine the binding activity of test compounds for BCL-2.
The test compounds were dissolved in dimethyl sulfoxide and diluted to gradient concentrations as required for the experiment, and the compounds at various concentrations formulated in dimethyl sulfoxide were subjected to a 100-fold dilution with a binding buffer. BCL-2 was diluted to the corresponding concentration with a binding buffer solution, and added to a white 384-well plate at 4 μL/well. Then the diluted test compound was added into the white 384-well plate at 2 μL/well. The plate was incubated at 25° C. for 1 h after the mixture was uniformly mixed. Biotin-labeled BIM protein was diluted to the corresponding concentration with a binding buffer, and added to a white 384-well plate at 4 μL/well. The plate was incubated at 25° C. for 2 h after the mixture was uniformly mixed. The MAb anti-6His-Eu cryptate and the affinity streptomycin linked XL665 were each diluted to the corresponding concentration with an assay buffer, and added to a white 384-well plate at 5 μL/well. The plate was incubated at 25° C. for 2-4 h after the mixture was uniformly mixed. The signal values were read with the HTRF program in a microplate reader (BMG Labtech, model: PHERAstar FS).

Experiment [3] relates to RS4;11 cells. Description: Inhibition of proliferation of RS4;11 cells (CellTiter-Glo). The class given is cell-based. Particulars: Homo sapiens, 72 h, 3 days, read-out: Inhibitory activity IC50 (nM) for the proliferation of RS4;11 cells. On the procedure:
(§1) In vitro inhibitory activity for the proliferation of RS4;11 cells and NCI-H146 cells was tested by the following method.
(§2) Reagents used in this experiment: RPMI-1640 medium (HyCLone, Cat #SH30243018); fetal bovine serum (Gibco, Cat #10099-141); pancreatin (Gibco, Cat #25200-072); Cell Titer-Glo (Promega, Cat #G7571).
(§3) Materials used: RS4;11 cells (Nanjing Kebai Biotechnology Co., Ltd, Cat #CBP60641); and NCI-H146 cells (ATCC, Cat #HTB-173).
(§4) The in vitro cell proliferation assay described below can determine the inhibitory activity of the test compounds for the proliferation of RS4;11 cells and NCI-H146 cells.
(§5) RS4;11 cells (or NCI-H146 cells) were cultured in an RPMI-1640 culture medium containing 10% FBS, and were passaged for 2-3 times a week in a passage ratio of 1:3 or 1:5. During passage, the cells were transferred to a centrifuge tube, and centrifuged at 1200 rpm for 3 min. The supernatant was discarded, and fresh culture medium was added to resuspend the cells. 90 μL of cell suspension was added to a 96-well cell culture plate, wherein RS4;11 cells and NCI-H146 cells were added at a density of 2.22×10^5 cells/mL. Only 100 μL of complete medium (RPMI-1640 medium containing 10% FBS) was added to the periphery of the 96-well plate. The plate was incubated in an incubator for 24 h (37° C., 5% CO2).
(§6) The test sample was diluted to a proper concentration gradient with dimethyl sulfoxide as required for the experiment. 5 μL of the solution of the test compound prepared in a gradient concentration was added to 95 μL of fresh culture medium and mixed uniformly, and then 10 μL of the culture medium containing the above compound was added to a cell culture plate. The cell culture plate was incubated in an incubator for 3 days (37° C., 5% CO2). 50 μL of CellTiter-Glo reagent was added into each well of the 96-well cell culture plate. The plate was let stand for 5-10 min away from the light at room temperature. The chemiluminescence signals were read by a microplate reader (BMG Labtech, model: PHERAstar FS) and the data were processed by GraphPad software.
Background: ATP-based viability assays read luminescence as a measure of living cells.

The test system of experiment [4] is NCI-H146 cells. The experiment is described as follows: Inhibition of proliferation of NCI-H146 cells (CellTiter-Glo). The format is cell-based. As to conditions: Homo sapiens, 72 h, 3 days, read-out: Inhibitory activity IC50 (nM) for the proliferation of NCI-H146 cells. As for the experimental part: as §1, §2, §3, §4, §5, §6

pKi: −log10 of the molar value.

T2 sequence (P10415 whole entry): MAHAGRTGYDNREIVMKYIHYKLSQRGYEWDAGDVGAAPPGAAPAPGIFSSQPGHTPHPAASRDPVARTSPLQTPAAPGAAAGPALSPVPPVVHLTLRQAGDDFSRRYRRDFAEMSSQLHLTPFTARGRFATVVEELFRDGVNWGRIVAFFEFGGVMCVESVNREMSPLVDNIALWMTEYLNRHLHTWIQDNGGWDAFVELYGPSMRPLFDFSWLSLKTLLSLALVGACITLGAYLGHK
T1 sequence (Q07817 whole entry): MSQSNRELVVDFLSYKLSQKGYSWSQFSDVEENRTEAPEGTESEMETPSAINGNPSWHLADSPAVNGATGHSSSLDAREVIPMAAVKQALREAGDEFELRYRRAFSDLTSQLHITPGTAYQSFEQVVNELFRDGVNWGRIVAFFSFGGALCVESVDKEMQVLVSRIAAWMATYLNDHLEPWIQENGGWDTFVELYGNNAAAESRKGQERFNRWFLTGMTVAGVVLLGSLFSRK

One may read the pKi as the negative decadic logarithm of the Ki, by convention in mol/L. As to `O=C(NS(=O)(=O)c1ccc(N[C@@H](CSc2ccccc2)C[C@H]2CCCN2)c(S(=O)(=O)C(F)(F)F)c1)c1ccc(N2CCC([C@@H](O)c3ccccc3-c3ccc(Cl)cc3)CC2)cc1` [Example 2-1, 4-(4-((R)-(4′-chloro-[1,1′-biphenyl]-2-yl)(hydroxy)methyl)piperidin-1-yl)-N-((4-(((R)-1-(phenylthio)-3-((R)-pyrrolidin-2-yl)propan-2-yl)amino)-3-((trifluoromethyl)sulfonyl)phenyl)sulfonyl)benzamide], the negative-log Ki (pKi) in experiment [1] was 10.05; in experiment [2], 10.15. For the same compound, the IC50 in experiment [3] worked out at 23 nM; in experiment [4] it was 36 nM.

As to `O=C(NS(=O)(=O)c1ccc(N[C@@H](CSc2ccccc2)C[C@H]2CCCN2CCO)c(S(=O)(=O)C(F)(F)F)c1)c1ccc(N2CCC([C@@H](O)c3ccccc3-c3ccc(Cl)cc3)CC2)cc1` [Example 2-2, 4-(4-((R)-(4′-chloro-[1,1′-biphenyl]-2-yl)(hydroxy)methyl)piperidin-1-yl)-N-((4-(((R)-1-((R)-1-(2-hydroxyethyl)pyrrolidin-2-yl)-3-(phenylthio)propan-2-yl)amino)-3-((trifluoromethyl)sulfonyl)phenyl)sulfonyl)benzamide], the figures for the negative-log Ki (pKi) in experiment [1] and in experiment [2] were 9.62 and 10.15, respectively. The figures for the IC50 in experiment [3] and in experiment [4] were 7 nM and 33 nM, respectively.

`CO[C@@H](c1ccccc1-c1ccc(Cl)cc1)C1CCN(c2ccc(C(=O)NS(=O)(=O)c3ccc(N[C@@H](CSc4ccccc4)C[C@H]4CCCN4)c(S(=O)(=O)C(F)(F)F)c3)cc2)CC1` [Example 2-3, 4-(4-((R)-(4′-chloro-[1,1′-biphenyl]-2-yl)(methoxy)methyl)piperidin-1-yl)-N-((4-(((R)-1-(phenylthio)-3-((R)-pyrrolidin-2-yl)propan-2-yl)amino)-3-((trifluoromethyl)sulfonyl)phenyl)sulfonyl)benzamide]: the pKi was 9.77 in experiment [1] and 10.00 in experiment [2]. For the same compound, the IC50 in experiment [3] was 58 nM; in experiment [4], 74 nM.

For the compound `CO[C@@H](c1ccccc1-c1ccc(Cl)cc1)C1CCN(c2ccc(C(=O)NS(=O)(=O)c3ccc(N[C@@H](CSc4ccccc4)C[C@H]4CCCN4CCO)c(S(=O)(=O)C(F)(F)F)c3)cc2)CC1` [Example 2-4, 4-(4-((R)-(4′-chloro-[1,1′-biphenyl]-2-yl)(methoxy)methyl)piperidin-1-yl)-N-((4-(((R)-1-((R)-1-(2-hydroxyethyl)pyrrolidin-2-yl)-3-(phenylthio)propan-2-yl)amino)-3-((trifluoromethyl)sulfonyl)phenyl)sulfonyl)benzamide], the negative logarithm of the Ki (pKi) is 9.49 in experiment [1] and 9.89 in experiment [2]. Moreover, the IC50 in experiment [3] came to 34 nM; in experiment [4], 94 nM.

In the case of `O=C(NS(=O)(=O)c1ccc(N[C@@H](CSc2ccccc2)C[C@H]2CCCN2CCCO)c(S(=O)(=O)C(F)(F)F)c1)c1ccc(N2CCC([C@@H](O)c3ccccc3-c3ccc(Cl)cc3)CC2)cc1` [Example 2-5, 4-(4-((R)-(4′-chloro-[1,1′-biphenyl]-2-yl)(hydroxy)methyl)piperidin-1-yl)-N-((4-(((R)-1-((R)-1-(3-hydroxypropyl)pyrrolidin-2-yl)-3-(phenylthio)propan-2-yl)amino)-3-((trifluoromethyl)sulfonyl)phenyl)sulfonyl)benzamide], the pKi in experiment [1] is 9.35; in experiment [2], 9.89. Further, the IC50 in experiment [3] worked out at 9 nM; in experiment [4], 55 nM.

In experiment [2], `CC(Sc1ccccc1)[C@@H](CCN(C)CCO)Nc1ccc(S(=O)(=O)NC(=O)c2ccc(N3CCC([C@@H](O)c4ccccc4-c4ccc(C(F)(F)F)cc4)CC3)cc2)cc1S(=O)(=O)C(F)(F)F` (stereo partly drawn) [Example 2-7, 4-(4-((R)-hydroxy(4′-(trifluoromethyl)-[1,1′-biphenyl]-2-yl)methyl)piperidin-1-yl)-N-((4-(((3R)-1-((2-hydroxyethyl)(methyl)amino)-4-(phenylthio)pentan-3-yl)amino)-3-((trifluoromethyl)sulfonyl)phenyl)sulfonyl)benzamide] gave a pKi of 9.47.

As to `O=C(NS(=O)(=O)c1ccc(N[C@@H](CSc2ccccc2)C[C@@H]2CCCN2)c(S(=O)(=O)C(F)(F)F)c1)c1ccc(N2CCC([C@@H](O)c3ccccc3-c3ccc(Cl)cc3)CC2)cc1` [Example 2-8, 4-(4-((R)-(4′-chloro-[1,1′-biphenyl]-2-yl)(hydroxy)methyl)piperidin-1-yl)-N-((4-(((R)-1-(phenylthio)-3-((S)-pyrrolidin-2-yl)propan-2-yl)amino)-3-((trifluoromethyl)sulfonyl)phenyl)sulfonyl)benzamide], the negative-log Ki (pKi) in experiment [1] was 9.52; in experiment [2] it was 9.96. Besides, the figures for the IC50 in experiment [3] and in experiment [4] were 18 nM and 46 nM, respectively.

Take `O=C(NS(=O)(=O)c1ccc(N[C@@H](CSc2ccccc2)C[C@@H]2CCCN2CCCO)c(S(=O)(=O)C(F)(F)F)c1)c1ccc(N2CCC([C@@H](O)c3ccccc3-c3ccc(Cl)cc3)CC2)cc1` [Example 2-11, 4-(4-((R)-(4′-chloro-[1,1′-biphenyl]-2-yl)(hydroxy)methyl)piperidin-1-yl)-N-((4-(((R)-1-((S)-1-(3-hydroxypropyl)pyrrolidin-2-yl)-3-(phenylthio)propan-2-yl)amino)-3-((trifluoromethyl)sulfonyl)phenyl)sulfonyl)benzamide]: the results for the pKi in experiment [1] and in experiment [2] were 10.00 and 10.40, respectively. The IC50 in experiment [3] was 5 nM; in experiment [4] it was 16 nM.

Take `O=C(NS(=O)(=O)c1ccc(N[C@@H](CSc2ccccc2)C[C@@H]2CCCN2)c(S(=O)(=O)C(F)(F)F)c1)c1ccc(N2CCC([C@@H](O)c3ccccc3-c3ccc(C(F)(F)F)cc3)CC2)cc1` [Example 2-12, 4-(4-((R)-hydroxy(4′-(trifluoromethyl)-[1,1′-biphenyl]-2-yl)methyl)piperidin-1-yl)-N-((4-(((R)-1-(phenylthio)-3-((S)-pyrrolidin-2-yl)propan-2-yl)amino)-3-((trifluoromethyl)sulfonyl)phenyl)sulfonyl)benzamide]: the negative logarithm of the Ki (pKi) was 9.82 in experiment [1] and 10.40 in experiment [2].
